Measurements from the supplement of paper PMC4862054.

Experiments:
[1] = system: DU-4475; assay: normalised viability (% of control), CellTiter-Blue; higher = more viable cells (about 100 = DMSO control); settings: 10 nM; incubation time: 72 h
Method: (§1)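 DSRT, CellTiter-Blue viability, 72 h incubation. Signal is normalised to DMSO and benzethonium chloride controls. Value is the normalised response at dose 3.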

[2] = system: BT-474; assay: as above; settings: 100 nM; incubation time: 72 h
Method: as §1

[3] = system: HCC1937; assay: as above; settings: 100 nM; incubation time: 72 h
Method: as §1

[4] = system: CAL-85-1; assay: as above; settings: 10 nM; incubation time: 72 h
Method: as §1

[5] = system: MDA-MB-453; assay: as above; settings: 10 nM; incubation time: 72 h
Method: as §1

[6] = system: CAL-51; assay: as above; settings: 10 nM; incubation time: 72 h
Method: as §1

[7] = system: MDA-MB-468; assay: as above; settings: 100 nM; incubation time: 72 h
Method: as §1

[8] = system: MDA-MB-231; assay: as above; settings: 100 nM; incubation time: 72 h
Method: as §1

[9] = system: HCC1143; assay: as above; settings: 100 nM; incubation time: 72 h
Method: as §1

[10] = system: HCC1599; assay: as above; settings: 100 nM; incubation time: 72 h
Method: as §1

[11] = system: CAL-148; assay: as above; settings: 10 nM; incubation time: 72 h
Method: as §1

[12] = system: CAL-120; assay: as above; settings: 100 nM; incubation time: 72 h
Method: as §1

[13] = system: HDQ-P1; assay: as above; settings: 10 nM; incubation time: 72 h
Method: as §1

[14] = system: DU-4475; assay: drug sensitivity score (DSS), CellTiter-Blue viability (DSS (AUC-based score)); higher = stronger viability inhibition; extreme values may be limits of the assay; settings: incubation time: 72 h
Method: (§2)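 DSRT with the CellTiter-Blue (resazurin reduction) viability readout, fluorescence 560/590 nm, 72 h incubation. Plates were normalised to DMSO and benzethonium chloride controls. DSS is computed from the area under the fitted dose-response curve (5 or 9 concentrations).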

[15] = system: BT-474; assay: as above; settings: incubation time: 72 h
Method: as §2

[16] = system: HCC1937; assay: as above; settings: incubation time: 72 h
Method: as §2

[17] = system: MDA-MB-453; assay: as above; settings: incubation time: 72 h
Method: as §2

[18] = system: MFM-223; assay: as above; settings: incubation time: 72 h
Method: as §2

[19] = system: MDA-MB-231; assay: as above; settings: incubation time: 72 h
Method: as §2

[20] = system: BT-549; assay: as above; settings: incubation time: 72 h
Method: as §2

[21] = system: MDA-MB-436; assay: as above; settings: incubation time: 72 h
Method: as §2

[22] = system: HCC1599; assay: as above; settings: incubation time: 72 h
Method: as §2

[23] = system: Hs578T; assay: as above; settings: incubation time: 72 h
Method: as §2

[24] = system: DU-4475; assay: normalised viability (% of control), CellTiter-Blue; higher = more viable cells (about 100 = DMSO control); settings: incubation time: 72 h
Method: (§3)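 DSRT, CellTiter-Blue viability, 72 h incubation. Signal is normalised to DMSO and benzethonium chloride controls. Value is the normalised response at dose 9.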

[25] = system: CAL-85-1; assay: as above; settings: incubation time: 72 h
Method: as §3

[26] = system: MDA-MB-453; assay: as above; settings: incubation time: 72 h
Method: as §3

[27] = system: CAL-51; assay: as above; settings: incubation time: 72 h
Method: as §3

[28] = system: CAL-148; assay: as above; settings: incubation time: 72 h
Method: as §3

[29] = system: HDQ-P1; assay: as above; settings: incubation time: 72 h
Method: as §3

Nc1ccn([C@@H]2O[C@H](CO)[C@@H](O)[C@@H]2O)c(=O)n1 [Cytarabine]
normalised viability [1]: 137%
normalised viability [2]: 101%
normalised viability [3]: 76.3%
normalised viability [4]: 110%
normalised viability [5]: 109%
normalised viability [6]: 94.4%
normalised viability [7]: 95.1%
normalised viability [8]: 86.3%
normalised viability [9]: 86%
normalised viability [10]: 110%
normalised viability [11]: 86.6%
normalised viability [12]: 82.4%
normalised viability [13]: 94.6%
drug sensitivity score [14]: 12.3
drug sensitivity score [15]: 0
drug sensitivity score [16]: 13.9
drug sensitivity score [17]: 6.62
drug sensitivity score [18]: 0
drug sensitivity score [19]: 7.18
drug sensitivity score [20]: 7.65
drug sensitivity score [21]: 4.91
drug sensitivity score [22]: 3
drug sensitivity score [23]: 11.6

Nc1ccn([C@@H]2O[C@H](CO)[C@@H](O)[C@@H]2O)c(=O)n1 [Cytarabine] (10000 nM)
normalised viability [24]: 22.1%
normalised viability [25]: 68.2%
normalised viability [26]: 58.7%
normalised viability [27]: 14.7%
normalised viability [28]: 29.1%
normalised viability [29]: 87.4%

Cc1c2oc3c(C)ccc(C(=O)N[C@@H]4C(=O)N[C@H](C(C)C)C(=O)N5CCC[C@H]5C(=O)N(C)CC(=O)N(C)[C@@H](C(C)C)C(=O)O[C@@H]4C)c3nc-2c(C(=O)N[C@@H]2C(=O)N[C@H](C(C)C)C(=O)N3CCC[C@H]3C(=O)N(C)CC(=O)N(C)[C@@H](C(C)C)C(=O)O[C@@H]2C)c(N)c1=O [Dactinomycin] (1000 nM)
normalised viability [24]: -0.64%
normalised viability [25]: 2.21%
normalised viability [26]: 5.82%
normalised viability [27]: 4.61%
normalised viability [28]: 12%
normalised viability [29]: 16.8%

COc1cccc2c1C(=O)c1c(O)c3c(c(O)c1C2=O)C[C@@](O)(C(=O)CO)C[C@@H]3O[C@H]1C[C@H](N)[C@H](O)[C@H](C)O1 [Doxorubicin] (1000 nM)
normalised viability [24]: -2.19%
normalised viability [25]: 7.31%
normalised viability [26]: 3.55%
normalised viability [27]: 3.87%
normalised viability [28]: -1.37%
normalised viability [29]: 13.7%

Cc1ccc(F)c(NC(=O)Nc2ccc(-c3cccc4[nH]nc(N)c34)cc2)c1 [Linifanib] (1000 nM)
normalised viability [24]: 99.5%
normalised viability [25]: 96.8%
normalised viability [26]: 111%
normalised viability [27]: 98.1%
normalised viability [28]: 80.2%
normalised viability [29]: 120%

S=c1[nH]cnc2nc[nH]c12 [Mercaptopurine] (10000 nM)
normalised viability [24]: 102%
normalised viability [25]: 80.3%
normalised viability [26]: 100%
normalised viability [27]: 75.1%
normalised viability [28]: 86.6%
normalised viability [29]: 90.3%

Clc1ccc(C(c2ccccc2Cl)C(Cl)Cl)cc1 (configuration not stated) [Mitotane] (10000 nM)
normalised viability [24]: 97.4%
normalised viability [25]: 89.7%
normalised viability [26]: 89.7%
normalised viability [27]: 109%
normalised viability [28]: 110%
normalised viability [29]: 109%

COc1cccc2cc(-c3nc([C@H]4CC[C@H](C(=O)O)CC4)n4ncnc(N)c34)[nH]c12 [OSI-027] (10000 nM)
normalised viability [24]: 30.1%
normalised viability [25]: 25.2%
normalised viability [26]: 12.5%
normalised viability [27]: 14.5%
normalised viability [28]: 10.6%
normalised viability [29]: 20.2%

OC[C@H]1O[C@@H](n2cnc3c2N=CNC[C@H]3O)C[C@@H]1O [Pentostatin] (10000 nM)
normalised viability [24]: 103%
normalised viability [25]: 108%
normalised viability [26]: 106%
normalised viability [27]: 88.3%
normalised viability [28]: 124%
normalised viability [29]: 99.7%

N#CC[C@H](C1CCCC1)n1cc(-c2ncnc3[nH]ccc23)cn1 [Ruxolitinib] (10000 nM)
normalised viability [24]: 113%
normalised viability [25]: 115%
normalised viability [26]: 66.1%
normalised viability [27]: 87.3%
normalised viability [28]: 106%
normalised viability [29]: 107%

C=CC[C@@H]1/C=C(\C)C[C@H](C)C[C@H](OC)[C@H]2O[C@@](O)(C(=O)C(=O)N3CCCC[C@H]3C(=O)O[C@H](/C(C)=C/[C@@H]3CC[C@@H](O)[C@H](OC)C3)[C@H](C)[C@@H](O)CC1=O)[C@H](C)C[C@@H]2OC [Tacrolimus] (10000 nM)
normalised viability [24]: 107%
normalised viability [25]: 100%
normalised viability [26]: 98.6%
normalised viability [27]: 95%
normalised viability [28]: 115%
normalised viability [29]: 136%

C=CCNC1=C2C[C@@H](C)C[C@H](OC)[C@H](O)[C@@H](C)/C=C(\C)[C@H](OC(N)=O)[C@@H](OC)/C=C\C=C(/C)C(=O)NC(=CC1=O)C2=O [Tanespimycin] (10000 nM)
normalised viability [24]: -0.27%
normalised viability [25]: 21.8%
normalised viability [26]: 3.61%
normalised viability [27]: 4.68%
normalised viability [28]: 9.8%
normalised viability [29]: 24.8%

C[C@]1(c2nc3c(C(N)=O)cccc3[nH]2)CCCN1 [Veliparib] (10000 nM)
normalised viability [24]: 81%
normalised viability [25]: 78.9%
normalised viability [26]: 94.9%
normalised viability [27]: 94.7%
normalised viability [28]: 94.9%
normalised viability [29]: 93.2%

CC[C@]1(O)C[C@@H]2CN(CCc3c([nH]c4ccccc34)[C@@](C(=O)OC)(c3cc4c(cc3OC)N(C)[C@H]3[C@@](O)(C(=O)OC)[C@H](OC(C)=O)[C@]5(CC)C=CCN6CC[C@]43[C@@H]65)C2)C1 [Vinblastine] (1000 nM)
normalised viability [24]: 7.08%
normalised viability [25]: 44.6%
normalised viability [26]: 36.3%
normalised viability [27]: 11.4%
normalised viability [28]: 22.7%
normalised viability [29]: 39.6%

CS(=O)(=O)c1ccc(C(=O)Nc2ccc(Cl)c(-c3ccccn3)c2)c(Cl)c1 [Vismodegib] (10000 nM)
normalised viability [24]: 123%
normalised viability [25]: 104%
normalised viability [26]: 86.5%
normalised viability [27]: 109%
normalised viability [28]: 81.6%
normalised viability [29]: 89.3%
